In patent US5534508A, “Cephem compounds and antimicrobial agents” (Katayama Seiyakusyo Co., Ltd., priority 1993, dated 1996):
≈ marks a conversion by molar mass, not a printed value.

Experiments:
Assay type in all cases: cell-based
[1] = test system: S. aureus 209p JC-1; test: MIC against standard strains (Table 1), S. aureus 209p JC-1; conditions: Staphylococcus aureus, Muller-Hinton agar, overnight 37° C., read-out: MIC (minimum growth inhibitory concentration)
Description: (§1) The minimum growth inhibitory concentration (MIC, μg/ml) of the compounds for each of the 25 standard laboratory strains (standard strains) shown in Table 1 was determined in accordance with the standard method of the Japan Chemotherapical Society (Chemotherapy, 29, 76-79 (1981) under "Re-revision of the measuring methods of minimum growth inhibitory concentration (MIC)").
(§2) That is, by using each test strain cultured overnight at 37° C. in a Muller-Hinton broth, there was prepared a bacterial solution with a cell density of 1×10^6 CFU/ml in the same broth. The bacterial solution was inoculated into the Muller-Hinton agar media each containing respectively one test agent (i.e., compound) and, after overnight incubation at 37° C., the minimum concentration that inhibited growth of the bacteria was determined and expressed as MIC.
(§3) Staphylococcus aureus 167 and Staphylococcus aureus 195 used in the test were MRSA. CTM (cefotiam) and FMOX (flomoxef) were used as the control agents.

[2] = test system: S. aureus Smith; test: MIC against standard strains (Table 1), S. aureus Smith; conditions: Staphylococcus aureus, Muller-Hinton agar, overnight 37° C., read-out: MIC (minimum growth inhibitory concentration)
Description: as §1, §2, §3

[3] = test system: S. aureus 167; test: MIC against standard strains (Table 1), S. aureus 167 (MRSA); conditions: Staphylococcus aureus, Muller-Hinton agar, overnight 37° C., read-out: MIC (minimum growth inhibitory concentration)
Description: as §1, §2, §3

[4] = test system: S. aureus 195; test: MIC against standard strains (Table 1), S. aureus 195 (MRSA); conditions: Staphylococcus aureus, Muller-Hinton agar, overnight 37° C., read-out: MIC (minimum growth inhibitory concentration)
Description: as §1, §2, §3

[5] = test system: S. epidemidis IAM 1296; test: MIC against standard strains (Table 1), S. epidemidis IAM 1296; conditions: Muller-Hinton agar, overnight 37° C., read-out: MIC (minimum growth inhibitory concentration)
Description: as §1, §2, §3

[6] = test system: M. luteus ATCC 9341; test: MIC against standard strains (Table 1), M. luteus ATCC 9341; conditions: Micrococcus luteus, ATCC9341, Muller-Hinton agar, overnight 37° C., read-out: MIC (minimum growth inhibitory concentration)
Description: as §1, §2, §3

[7] = test system: B. subtilis ATCC 6633; test: MIC against standard strains (Table 1), B. subtilis ATCC 6633; conditions: Bacillus subtilis, ATCC6633, Muller-Hinton agar, overnight 37° C., read-out: MIC (minimum growth inhibitory concentration)
Description: as §1, §2, §3

[8] = test system: E. coli JC-2; test: MIC against standard strains (Table 1), E. coli JC-2; conditions: Escherichia coli, JC2, Muller-Hinton agar, overnight 37° C., read-out: MIC (minimum growth inhibitory concentration)
Description: as §1, §2, §3

[9] = test system: E. coli CSH2(RK1); test: MIC against standard strains (Table 1), E. coli CSH2(RK1); conditions: Escherichia coli, read-out: MIC (minimum growth inhibitory concentration)
Description: as §1, §2, §3

[10] = test system: E. coli CSH2(RE45); test: MIC against standard strains (Table 1), E. coli CSH2(RE45); conditions: Escherichia coli, read-out: MIC (minimum growth inhibitory concentration)
Description: as §1, §2, §3

[11] = test system: K. pneuminiae IFO 3317; test: MIC against standard strains (Table 1), K. pneuminiae IFO 3317; conditions: Muller-Hinton agar, overnight 37° C., read-out: MIC (minimum growth inhibitory concentration)
Description: as §1, §2, §3

[12] = test system: K. pneuminiae No. 42; test: MIC against standard strains (Table 1), K. pneuminiae No. 42; conditions: Muller-Hinton agar, overnight 37° C., read-out: MIC (minimum growth inhibitory concentration)
Description: as §1, §2, §3

[13] = test system: P. mirabilis IFO 3849; test: MIC against standard strains (Table 1), P. mirabilis IFO 3849; conditions: Proteus mirabilis, IFO3849, Muller-Hinton agar, overnight 37° C., read-out: MIC (minimum growth inhibitory concentration)
Description: as §1, §2, §3

[14] = test system: P. vulugaris OX-19; test: MIC against standard strains (Table 1), P. vulugaris OX-19; conditions: Muller-Hinton agar, overnight 37° C., read-out: MIC (minimum growth inhibitory concentration)
Description: as §1, §2, §3

[15] = test system: M. morganii IFO 3848; test: MIC against standard strains (Table 1), M. morganii IFO 3848; conditions: Morganella morganii, IFO3848, Muller-Hinton agar, overnight 37° C., read-out: MIC (minimum growth inhibitory concentration)
Description: as §1, §2, §3

[16] = test system: S. marcescens IAM 1184; test: MIC against standard strains (Table 1), S. marcescens IAM 1184; conditions: Serratia marcescens, IAM1184, Muller-Hinton agar, overnight 37° C., read-out: MIC (minimum growth inhibitory concentration)
Description: as §1, §2, §3

[17] = test system: S. marcescens No. 16-2; test: MIC against standard strains (Table 1), S. marcescens No. 16-2; conditions: Serratia marcescens, NO.162, Muller-Hinton agar, overnight 37° C., read-out: MIC (minimum growth inhibitory concentration)
Description: as §1, §2, §3

[18] = test system: E. cloacae ATCC 13407; test: MIC against standard strains (Table 1), E. cloacae ATCC 13407; conditions: Enterobacter cloacae, ATCC13407, Muller-Hinton agar, overnight 37° C., read-out: MIC (minimum growth inhibitory concentration)
Description: as §1, §2, §3

[19] = test system: E. cloacae Nek39; test: MIC against standard strains (Table 1), E. cloacae Nek39; conditions: Enterobacter cloacae, Muller-Hinton agar, overnight 37° C., read-out: MIC (minimum growth inhibitory concentration)
Description: as §1, §2, §3

[20] = test system: C. freundii ATCC 8090; test: MIC against standard strains (Table 1), C. freundii ATCC 8090; conditions: Citrobacter freundii, ATCC8090, Muller-Hinton agar, overnight 37° C., read-out: MIC (minimum growth inhibitory concentration)
Description: as §1, §2, §3

[21] = test system: P. aeruginosa NCTC 10490; test: MIC against standard strains (Table 1), P. aeruginosa NCTC 10490; conditions: Pseudomonas aeruginosa, NCTC10490, Muller-Hinton agar, overnight 37° C., read-out: MIC (minimum growth inhibitory concentration)
Description: as §1, §2, §3

[22] = test system: P. aeruginosa AKR17; test: MIC against standard strains (Table 1), P. aeruginosa AKR17; conditions: Pseudomonas aeruginosa, Muller-Hinton agar, overnight 37° C., read-out: MIC (minimum growth inhibitory concentration)
Description: as §1, §2, §3

[23] = test system: P. cepacia CN 9113; test: MIC against standard strains (Table 1), P. cepacia CN 9113; conditions: Burkholderia cepacia, CN9113, Muller-Hinton agar, overnight 37° C., read-out: MIC (minimum growth inhibitory concentration)
Description: as §1, §2, §3

[24] = test system: A. faecalis ATCC 3750; test: MIC against standard strains (Table 1), A. faecalis ATCC 3750; conditions: Alcaligenes faecalis, ATCC3750, Muller-Hinton agar, overnight 37° C., read-out: MIC (minimum growth inhibitory concentration)
Description: as §1, §2, §3

[25] = test system: A. calcoaceticos T59; test: MIC against standard strains (Table 1), A. calcoaceticos T59; conditions: Muller-Hinton agar, overnight 37° C., read-out: MIC (minimum growth inhibitory concentration)
Description: as §1, §2, §3

[26] = test system: clinically isolated MRSA; test: Antibacterial potency against clinically isolated MRSA (47 strains); conditions: Staphylococcus aureus
Description: A test on the antibacterial potency against clinically isolated MRSA was conducted in the following way.
That is, using 47 strains of clinically isolated MRSA, MIC was determined for each of the test strains in accordance with the standard method of the Japan Chemotherapical Society as in Test Example 1, and the minimum growth inhibitory concentration which inhibited growth of 50% of the strains tested was expressed as MIC50 (μg/ml), and the minimum growth inhibitory concentration which inhibited growth of 90% of the strains tested was expressed as MIC90 (μg/ml).
In this test, FMOX was used as the control agent.

| SMILES | MIC [1] | MIC [2] | MIC [4] | MIC [5] | MIC [6] | MIC [7] | MIC [8] | MIC [9] | MIC [10] | MIC [11] | MIC [12] | MIC [13] | MIC [14] | MIC [15] | MIC [16] | MIC [17] | MIC [18] | MIC [19] | MIC [20] | MIC [21] | further results |
| --- | --- | --- | --- | --- | --- | --- | --- | --- | --- | --- | --- | --- | --- | --- | --- | --- | --- | --- | --- | --- | --- |
| CN(C)CCn1nnnc1SCC1=C(C(=O)O)N2C(=O)[C@@H](NC(=O)Cc3csc(N)n3)[C@H]2SC1 [CTM, cefotiam, reference compound] | 0.78 µg/mL (≈ 1.48 µM) | 0.78 µg/mL (≈ 1.48 µM) | > 100 µg/mL | 0.39 µg/mL (≈ 0.742 µM) | 0.39 µg/mL (≈ 0.742 µM) | 0.39 µg/mL (≈ 0.742 µM) | 0.2 µg/mL (≈ 0.38 µM) | 0.2 µg/mL (≈ 0.38 µM) | 0.39 µg/mL (≈ 0.742 µM) | 0.2 µg/mL (≈ 0.38 µM) | 0.39 µg/mL (≈ 0.742 µM) | 0.39 µg/mL (≈ 0.742 µM) | 0.39 µg/mL (≈ 0.742 µM) | 0.2 µg/mL (≈ 0.38 µM) | 3.13 µg/mL (≈ 5.95 µM) | > 100 µg/mL | > 100 µg/mL | > 100 µg/mL | 0.78 µg/mL (≈ 1.48 µM) | 100 µg/mL (≈ 190 µM) | MIC [3]: > 100 µg/mL; MIC [22]: > 100 µg/mL; MIC [23]: > 100 µg/mL; MIC [24]: 3.13 µg/mL (≈ 5.95 µM); MIC [25]: > 100 µg/mL |
| CO/N=C(\C(=O)N[C@@H]1C(=O)N2C(C(=O)[O-])=C(/C=C/C[n+]3cccc(-c4csc(N)n4)c3)CS[C@H]12)c1csc(N)n1 [Compound 5, 7β-[2-(2-aminothiazol-4-yl)-2-syn-methoxyiminoacetamido]-3-[(E)-3-[3-(2-aminothiazol-4-yl)pyridinio]-1-propenyl]-3-cephem-4-carboxylate] | 0.39 µg/mL (≈ 0.651 µM) | 0.39 µg/mL (≈ 0.651 µM) | 12.5 µg/mL (≈ 20.9 µM) | 0.2 µg/mL (≈ 0.334 µM) | 0.025 µg/mL (≈ 0.0418 µM) | 0.39 µg/mL (≈ 0.651 µM) | 0.025 µg/mL (≈ 0.0418 µM) | 0.05 µg/mL (≈ 0.0835 µM) | 0.2 µg/mL (≈ 0.334 µM) | 0.025 µg/mL (≈ 0.0418 µM) | 0.2 µg/mL (≈ 0.334 µM) | 0.1 µg/mL (≈ 0.167 µM) | 0.025 µg/mL (≈ 0.0418 µM) | 0.025 µg/mL (≈ 0.0418 µM) | 0.025 µg/mL (≈ 0.0418 µM) | 1.56 µg/mL (≈ 2.61 µM) | 0.2 µg/mL (≈ 0.334 µM) | 3.13 µg/mL (≈ 5.23 µM) | 0.025 µg/mL (≈ 0.0418 µM) | 1.56 µg/mL (≈ 2.61 µM) | MIC [3]: 100 µg/mL (≈ 167 µM); MIC [22]: > 100 µg/mL; MIC [23]: 50 µg/mL (≈ 83.5 µM); MIC [24]: 0.78 µg/mL (≈ 1.3 µM); MIC [25]: 12.5 µg/mL (≈ 20.9 µM) |
| CO[C@@]1(NC(=O)CSC(F)F)C(=O)N2C(C(=O)O)=C(CSc3nnnn3CCO)CO[C@@H]21 [FMOX, flomoxef, reference compound] | 0.39 µg/mL (≈ 0.786 µM) | 0.39 µg/mL (≈ 0.786 µM) | 3.13 µg/mL (≈ 6.3 µM) | 0.2 µg/mL (≈ 0.403 µM) | 0.1 µg/mL (≈ 0.201 µM) | 0.2 µg/mL (≈ 0.403 µM) | 0.1 µg/mL (≈ 0.201 µM) | 0.1 µg/mL (≈ 0.201 µM) | 0.1 µg/mL (≈ 0.201 µM) | 0.05 µg/mL (≈ 0.101 µM) | 0.1 µg/mL (≈ 0.201 µM) | 0.2 µg/mL (≈ 0.403 µM) | 0.39 µg/mL (≈ 0.786 µM) | 0.39 µg/mL (≈ 0.786 µM) | 0.2 µg/mL (≈ 0.403 µM) | 100 µg/mL (≈ 201 µM) | 100 µg/mL (≈ 201 µM) | 100 µg/mL (≈ 201 µM) | 0.2 µg/mL (≈ 0.403 µM) | > 100 µg/mL | MIC [22]: > 100 µg/mL; MIC [23]: 100 µg/mL (≈ 201 µM); MIC [24]: 0.1 µg/mL (≈ 0.201 µM); MIC [25]: 100 µg/mL (≈ 201 µM); MIC50 ([26]; concentration inhibiting growth of 50% of 47 clinically isolated MRSA strains): 5.13 µg/mL (≈ 10.3 µM); MIC90 ([26]; concentration inhibiting growth of 90% of 47 clinically isolated MRSA strains): 32.1 µg/mL (≈ 64.6 µM) |
